From the NIST ThermoML archive (doi:10.1016/j.jct.2015.09.020)
Numbers after ± are expanded uncertainties.

Experiment: mn = molality of the nth substance listed, in mol/kg
Conditions: 101.3 kPa, Liquid

## N[C@@H](CCC(=O)[O-])C(=O)O.[Na+] [sodium (S)-2-amino-4-carboxybutanoate] + O
278.15 K, Frequency=2 MHz, Linear variable-path acoustic interferometer, m1 = 0.0467
  speed of sound: 1433.6 ± 1.7 m/s
278.15 K, Frequency=2 MHz, Linear variable-path acoustic interferometer, m1 = 0.0724
  speed of sound: 1437.7 ± 1.7 m/s
278.15 K, Frequency=2 MHz, Linear variable-path acoustic interferometer, m1 = 0.091
  speed of sound: 1441 ± 1.7 m/s
278.15 K, Frequency=2 MHz, Linear variable-path acoustic interferometer, m1 = 0.1095
  speed of sound: 1442.8 ± 1.7 m/s
278.15 K, Frequency=2 MHz, Linear variable-path acoustic interferometer, m1 = 0.1355
  speed of sound: 1446.8 ± 1.8 m/s
278.15 K, Frequency=2 MHz, Linear variable-path acoustic interferometer, m1 = 0.163
  speed of sound: 1451.4 ± 1.8 m/s
278.15 K, Frequency=2 MHz, Linear variable-path acoustic interferometer, m1 = 0.1906
  speed of sound: 1455.3 ± 1.8 m/s
278.15 K, Frequency=2 MHz, Linear variable-path acoustic interferometer, m1 = 0.2075
  speed of sound: 1458.8 ± 1.9 m/s
278.15 K, Frequency=2 MHz, Linear variable-path acoustic interferometer, m1 = 0.2251
  speed of sound: 1461.7 ± 1.8 m/s
278.15 K, Frequency=2 MHz, Linear variable-path acoustic interferometer, m1 = 0.2436
  speed of sound: 1464 ± 1.9 m/s
278.15 K, Frequency=2 MHz, Linear variable-path acoustic interferometer, m1 = 0.2705
  speed of sound: 1468.1 ± 2 m/s
278.15 K, Frequency=2 MHz, Linear variable-path acoustic interferometer, m1 = 0.2895
  speed of sound: 1471.7 ± 2 m/s
278.15 K, Frequency=2 MHz, Linear variable-path acoustic interferometer, m1 = 0.302
  speed of sound: 1473.6 ± 2 m/s
278.15 K, Pycnometric method, m1 = 0.0467
  mass density: 1004.22 ± 0.29 kg/m3
278.15 K, Pycnometric method, m1 = 0.0724
  mass density: 1006.57 ± 0.31 kg/m3
278.15 K, Pycnometric method, m1 = 0.091
  mass density: 1008.26 ± 0.32 kg/m3
278.15 K, Pycnometric method, m1 = 0.1095
  mass density: 1009.79 ± 0.35 kg/m3
278.15 K, Pycnometric method, m1 = 0.1355
  mass density: 1012.41 ± 0.38 kg/m3
278.15 K, Pycnometric method, m1 = 0.163
  mass density: 1014.89 ± 0.41 kg/m3
278.15 K, Pycnometric method, m1 = 0.1906
  mass density: 1017.32 ± 0.44 kg/m3
278.15 K, Pycnometric method, m1 = 0.2075
  mass density: 1018.82 ± 0.46 kg/m3
278.15 K, Pycnometric method, m1 = 0.2251
  mass density: 1020.29 ± 0.5 kg/m3
278.15 K, Pycnometric method, m1 = 0.2436
  mass density: 1022.15 ± 0.5 kg/m3
278.15 K, Pycnometric method, m1 = 0.2705
  mass density: 1024.19 ± 0.55 kg/m3
278.15 K, Pycnometric method, m1 = 0.2895
  mass density: 1026.12 ± 0.66 kg/m3
278.15 K, Pycnometric method, m1 = 0.302
  mass density: 1027.42 ± 0.69 kg/m3
288.15 K, Frequency=3 MHz, Sing-around technique in a fixed-path interferometer, m1 = 0.0469
  speed of sound: 1472.9 ± 1.2 m/s
288.15 K, Frequency=3 MHz, Sing-around technique in a fixed-path interferometer, m1 = 0.072
  speed of sound: 1476.6 ± 1.2 m/s
288.15 K, Frequency=3 MHz, Sing-around technique in a fixed-path interferometer, m1 = 0.0904
  speed of sound: 1478.9 ± 1.2 m/s
288.15 K, Frequency=3 MHz, Sing-around technique in a fixed-path interferometer, m1 = 0.1082
  speed of sound: 1481.3 ± 1.3 m/s
288.15 K, Frequency=3 MHz, Sing-around technique in a fixed-path interferometer, m1 = 0.1368
  speed of sound: 1485.6 ± 1.3 m/s
288.15 K, Frequency=3 MHz, Sing-around technique in a fixed-path interferometer, m1 = 0.1628
  speed of sound: 1489.3 ± 1.3 m/s
288.15 K, Frequency=3 MHz, Sing-around technique in a fixed-path interferometer, m1 = 0.19
  speed of sound: 1492.9 ± 1.3 m/s
288.15 K, Frequency=3 MHz, Sing-around technique in a fixed-path interferometer, m1 = 0.2089
  speed of sound: 1495.3 ± 1.3 m/s
288.15 K, Frequency=3 MHz, Sing-around technique in a fixed-path interferometer, m1 = 0.2289
  speed of sound: 1497.5 ± 1.4 m/s
288.15 K, Frequency=3 MHz, Sing-around technique in a fixed-path interferometer, m1 = 0.2441
  speed of sound: 1499.7 ± 1.5 m/s
288.15 K, Frequency=3 MHz, Sing-around technique in a fixed-path interferometer, m1 = 0.264
  speed of sound: 1503.2 ± 1.5 m/s
288.15 K, Frequency=3 MHz, Sing-around technique in a fixed-path interferometer, m1 = 0.2916
  speed of sound: 1506.7 ± 1.4 m/s
288.15 K, Frequency=3 MHz, Sing-around technique in a fixed-path interferometer, m1 = 0.316
  speed of sound: 1509 ± 1.4 m/s
288.15 K, Vibrating tube method, m1 = 0.0469
  mass density: 1003.34 ± 0.14 kg/m3
288.15 K, Vibrating tube method, m1 = 0.072
  mass density: 1005.66 ± 0.17 kg/m3
288.15 K, Vibrating tube method, m1 = 0.0904
  mass density: 1007.29 ± 0.19 kg/m3
288.15 K, Vibrating tube method, m1 = 0.1082
  mass density: 1008.87 ± 0.22 kg/m3
288.15 K, Vibrating tube method, m1 = 0.1368
  mass density: 1011.34 ± 0.26 kg/m3
288.15 K, Vibrating tube method, m1 = 0.1628
  mass density: 1013.63 ± 0.31 kg/m3
288.15 K, Vibrating tube method, m1 = 0.19
  mass density: 1016.04 ± 0.35 kg/m3
288.15 K, Vibrating tube method, m1 = 0.2089
  mass density: 1017.65 ± 0.37 kg/m3
288.15 K, Vibrating tube method, m1 = 0.2289
  mass density: 1019.31 ± 0.4 kg/m3
288.15 K, Vibrating tube method, m1 = 0.2441
  mass density: 1020.63 ± 0.43 kg/m3
288.15 K, Vibrating tube method, m1 = 0.264
  mass density: 1022.32 ± 0.46 kg/m3
288.15 K, Vibrating tube method, m1 = 0.2916
  mass density: 1024.67 ± 0.5 kg/m3
288.15 K, Vibrating tube method, m1 = 0.316
  mass density: 1026.69 ± 0.53 kg/m3
298.15 K, Frequency=3 MHz, Sing-around technique in a fixed-path interferometer, m1 = 0.0469
  speed of sound: 1502.5 ± 1.2 m/s
298.15 K, Frequency=3 MHz, Sing-around technique in a fixed-path interferometer, m1 = 0.072
  speed of sound: 1505.8 ± 1.2 m/s
298.15 K, Frequency=3 MHz, Sing-around technique in a fixed-path interferometer, m1 = 0.0904
  speed of sound: 1508.2 ± 1.2 m/s
298.15 K, Frequency=3 MHz, Sing-around technique in a fixed-path interferometer, m1 = 0.1082
  speed of sound: 1510.5 ± 1.3 m/s
298.15 K, Frequency=3 MHz, Sing-around technique in a fixed-path interferometer, m1 = 0.1368
  speed of sound: 1514.4 ± 1.3 m/s
298.15 K, Frequency=3 MHz, Sing-around technique in a fixed-path interferometer, m1 = 0.1628
  speed of sound: 1517.9 ± 1.3 m/s
298.15 K, Frequency=3 MHz, Sing-around technique in a fixed-path interferometer, m1 = 0.19
  speed of sound: 1521.3 ± 1.3 m/s
298.15 K, Frequency=3 MHz, Sing-around technique in a fixed-path interferometer, m1 = 0.2089
  speed of sound: 1523.6 ± 1.3 m/s
298.15 K, Frequency=3 MHz, Sing-around technique in a fixed-path interferometer, m1 = 0.2289
  speed of sound: 1525.8 ± 1.3 m/s
298.15 K, Frequency=3 MHz, Sing-around technique in a fixed-path interferometer, m1 = 0.2441
  speed of sound: 1527.8 ± 1.4 m/s
298.15 K, Frequency=3 MHz, Sing-around technique in a fixed-path interferometer, m1 = 0.264
  speed of sound: 1531.1 ± 1.4 m/s
298.15 K, Frequency=3 MHz, Sing-around technique in a fixed-path interferometer, m1 = 0.2916
  speed of sound: 1533.9 ± 1.4 m/s
298.15 K, Frequency=3 MHz, Sing-around technique in a fixed-path interferometer, m1 = 0.316
  speed of sound: 1537 ± 1.5 m/s
298.15 K, Vibrating tube method, m1 = 0.0469
  mass density: 1001.22 ± 0.14 kg/m3
298.15 K, Vibrating tube method, m1 = 0.072
  mass density: 1003.48 ± 0.17 kg/m3
298.15 K, Vibrating tube method, m1 = 0.0904
  mass density: 1005.08 ± 0.19 kg/m3
298.15 K, Vibrating tube method, m1 = 0.1082
  mass density: 1006.62 ± 0.21 kg/m3
298.15 K, Vibrating tube method, m1 = 0.1368
  mass density: 1009.04 ± 0.26 kg/m3
298.15 K, Vibrating tube method, m1 = 0.1628
  mass density: 1011.28 ± 0.3 kg/m3
298.15 K, Vibrating tube method, m1 = 0.19
  mass density: 1013.63 ± 0.34 kg/m3
298.15 K, Vibrating tube method, m1 = 0.2089
  mass density: 1015.21 ± 0.36 kg/m3
298.15 K, Vibrating tube method, m1 = 0.2289
  mass density: 1016.84 ± 0.39 kg/m3
298.15 K, Vibrating tube method, m1 = 0.2441
  mass density: 1018.13 ± 0.42 kg/m3
298.15 K, Vibrating tube method, m1 = 0.264
  mass density: 1019.79 ± 0.46 kg/m3
298.15 K, Vibrating tube method, m1 = 0.2916
  mass density: 1022.11 ± 0.49 kg/m3
298.15 K, Vibrating tube method, m1 = 0.316
  mass density: 1024.08 ± 0.52 kg/m3
